In ChEMBL document CHEMBL1201862, “PubChem BioAssay data set” (2004):
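Test compounds were applied to cells in 96-well plates for 48 hours at 5 doses. At the GI50, growth is halved.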 Activity calls are given as the source filed them. Rule as the data show it: active = GI50 up to about 1.1 µM and inactive = higher.

Columns and labels:
Experiment in all cases: DTP human tumour cell line panel, 48 h
LOX IMVI = tested on: LOX IMVI
SK-OV-3 = tested on: SK-OV-3
A498 = tested on: A498
KM12 = tested on: KM12
SNB-19 = tested on: SNB-19
CAKI-1 = tested on: CAKI-1
K562 = tested on: K562
CCRF-CEM = tested on: CCRF-CEM
DU-145 = tested on: DU-145
HOP-62 = tested on: HOP-62
NCI-H460 = tested on: NCI-H460
OVCAR-5 = tested on: OVCAR-5
A549 = tested on: A549
SK-MEL-28 = tested on: SK-MEL-28
U-251 = tested on: U-251
SK-MEL-2 = tested on: SK-MEL-2
UACC-62 = tested on: UACC-62
HT-29 = tested on: HT-29
Malme-3M = tested on: Malme-3M
SF-295 = tested on: SF-295
UACC-257 = tested on: UACC-257
NCI-H23 = tested on: NCI-H23
COLO 205 = tested on: COLO 205
EKVX = tested on: EKVX
M14 = tested on: M14
IGROV-1 = tested on: IGROV-1
HCT-15 = tested on: HCT-15
SK-MEL-5 = tested on: SK-MEL-5
BT-549 = tested on: BT-549
SW-620 = tested on: SW-620
UO-31 = tested on: UO-31
SR = tested on: SR
OVCAR-3 = tested on: OVCAR-3
MDA-N = tested on: MDA-N
OVCAR-4 = tested on: OVCAR-4
NCI/ADR-RES = tested on: NCI/ADR-RES
HOP-92 = tested on: HOP-92
SF-268 = tested on: SF-268
TK-10 = tested on: TK-10
MOLT-4 = tested on: MOLT-4
NCI-H226 = tested on: NCI-H226
RPMI-8226 = tested on: RPMI-8226
SF-539 = tested on: SF-539
ACHN = tested on: ACHN
HCT-116 = tested on: HCT-116
786-0 = tested on: 786-0
NCI-H522 = tested on: NCI-H522
PC-3 = tested on: PC-3
MDA-MB-435 = tested on: MDA-MB-435
SN12C = tested on: SN12C
Hs-578T = tested on: Hs-578T
OVCAR-8 = tested on: OVCAR-8
MDA-MB-231 = tested on: MDA-MB-231
MCF7 = tested on: MCF7
HL-60 = tested on: HL-60
RXF 393 = tested on: RXF 393
SNB-75 = tested on: SNB-75
T47D = tested on: T47D
HCC 2998 = tested on: HCC 2998

SMILES: Oc1ccc(Cc2nccc3cc(O)c(O)cc23)cc1O
- GI50 (LOX IMVI): 33.5 µM (inactive)
- GI50 (SK-OV-3): 66.8 µM (inactive)
- GI50 (A498): 45 µM (inactive)
- GI50 (KM12): 67.3 µM (inactive)
- GI50 (SNB-19): 55.2 µM (inactive)
- GI50 (CAKI-1): 58.3 µM (inactive)
- GI50 (K562): 26.8 µM (inactive)
- GI50 (CCRF-CEM): 17.9 µM (inactive)
- GI50 (DU-145): 66.5 µM (inactive)
- GI50 (HOP-62): 47.4 µM (inactive)
- GI50 (NCI-H460): 29.6 µM (inactive)
- GI50 (OVCAR-5): 48.9 µM (inactive)
- GI50 (A549): 54.3 µM (inactive)
- GI50 (SK-MEL-28): 79.8 µM (inactive)
- GI50 (U-251): 37.9 µM (inactive)
- GI50 (SK-MEL-2): 49.7 µM (inactive)
- GI50 (UACC-62): 33.4 µM (inactive)
- GI50 (HT-29): 53.5 µM (inactive)
- GI50 (Malme-3M): > 100 µM (inactive)
- GI50 (SF-295): 37.2 µM (inactive)
- GI50 (UACC-257): 20.8 µM (inactive)
- GI50 (NCI-H23): 38.1 µM (inactive)
- GI50 (COLO 205): 21.6 µM (inactive)
- GI50 (EKVX): 26.5 µM (inactive)
- GI50 (M14): 26.6 µM (inactive)
- GI50 (IGROV-1): 33 µM (inactive)
- GI50 (HCT-15): 57.7 µM
- GI50 (SK-MEL-5): 28.8 µM (inactive)
- GI50 (BT-549): 54.3 µM (inactive)
- GI50 (SW-620): 36.1 µM (inactive)
- GI50 (UO-31): 40.6 µM (inactive)
- GI50 (SR): 19.6 µM (inactive)
- GI50 (OVCAR-3): 90.8 µM (inactive)
- GI50 (MDA-N): 58.2 µM (inactive)
- GI50 (OVCAR-4): 41.6 µM (inactive)
- GI50 (NCI/ADR-RES): > 100 µM (inactive)
- GI50 (HOP-92): 90.2 µM (inactive)
- GI50 (SF-268): 51.9 µM (inactive)
- GI50 (TK-10): 32.7 µM (inactive)
- GI50 (MOLT-4): 22.3 µM (inactive)
- GI50 (NCI-H226): 46.2 µM (inactive)
- GI50 (RPMI-8226): 27.4 µM (inactive)
- GI50 (SF-539): 40.4 µM (inactive)
- GI50 (ACHN): 88.1 µM (inactive)
- GI50 (HCT-116): 17.7 µM (inactive)
- GI50 (786-0): 32.1 µM (inactive)
- GI50 (NCI-H522): 30.4 µM (inactive)
- GI50 (PC-3): 52.6 µM (inactive)
- GI50 (MDA-MB-435): 51.3 µM (inactive)
- GI50 (SN12C): 29.9 µM (inactive)
- GI50 (Hs-578T): > 100 µM (inactive)
- GI50 (OVCAR-8): 45.7 µM (inactive)
- GI50 (MDA-MB-231): 97.1 µM (inactive)
- GI50 (MCF7): 21.5 µM (inactive)
- GI50 (HL-60): 26.3 µM (inactive)
- GI50 (RXF 393): 37.6 µM (inactive)
- GI50 (SNB-75): 21 µM (inactive)
- GI50 (T47D): 30.4 µM (inactive)

SMILES: CC1(C)C2CCC1C(=O)C(C=O)C2 (centres undefined)
- GI50 (LOX IMVI): > 100 µM (inactive)
- GI50 (SK-OV-3): > 100 µM (inactive)
- GI50 (A498): > 100 µM (inactive)
- GI50 (KM12): > 100 µM (inactive)
- GI50 (SNB-19): > 100 µM (inactive)
- GI50 (CAKI-1): > 100 µM (inactive)
- GI50 (K562): > 100 µM (inactive)
- GI50 (CCRF-CEM): > 100 µM (inactive)
- GI50 (DU-145): > 100 µM (inactive)
- GI50 (HOP-62): > 100 µM (inactive)
- GI50 (NCI-H460): > 100 µM (inactive)
- GI50 (OVCAR-5): > 100 µM (inactive)
- GI50 (A549): > 100 µM (inactive)
- GI50 (SK-MEL-28): > 100 µM (inactive)
- GI50 (U-251): > 100 µM (inactive)
- GI50 (SK-MEL-2): > 100 µM (inactive)
- GI50 (UACC-62): > 100 µM (inactive)
- GI50 (HT-29): > 100 µM (inactive)
- GI50 (Malme-3M): > 100 µM (inactive)
- GI50 (SF-295): > 100 µM (inactive)
- GI50 (UACC-257): > 100 µM (inactive)
- GI50 (NCI-H23): > 100 µM (inactive)
- GI50 (COLO 205): > 100 µM (inactive)
- GI50 (M14): > 100 µM (inactive)
- GI50 (IGROV-1): > 100 µM (inactive)
- GI50 (HCT-15): 49.5 µM
- GI50 (SK-MEL-5): > 100 µM (inactive)
- GI50 (BT-549): > 100 µM (inactive)
- GI50 (SW-620): > 100 µM (inactive)
- GI50 (UO-31): > 100 µM (inactive)
- GI50 (SR): 3.16 µM (inactive)
- GI50 (OVCAR-3): > 100 µM (inactive)
- GI50 (MDA-N): > 100 µM (inactive)
- GI50 (NCI/ADR-RES): > 100 µM (inactive)
- GI50 (SF-268): > 100 µM (inactive)
- GI50 (TK-10): > 100 µM (inactive)
- GI50 (MOLT-4): > 100 µM (inactive)
- GI50 (NCI-H226): > 100 µM (inactive)
- GI50 (RPMI-8226): > 100 µM (inactive)
- GI50 (SF-539): 74.5 µM (inactive)
- GI50 (ACHN): > 100 µM (inactive)
- GI50 (HCT-116): > 100 µM (inactive)
- GI50 (786-0): > 100 µM (inactive)
- GI50 (NCI-H522): > 100 µM (inactive)
- GI50 (PC-3): > 100 µM (inactive)
- GI50 (HCC 2998): > 100 µM (inactive)
- GI50 (MDA-MB-435): > 100 µM (inactive)
- GI50 (SN12C): > 100 µM (inactive)
- GI50 (Hs-578T): > 100 µM (inactive)
- GI50 (OVCAR-8): > 100 µM (inactive)
- GI50 (MDA-MB-231): > 100 µM (inactive)
- GI50 (MCF7): > 100 µM (inactive)
- GI50 (HL-60): 57.3 µM (inactive)
- GI50 (RXF 393): > 100 µM (inactive)
- GI50 (SNB-75): 79.1 µM (inactive)
- GI50 (T47D): > 100 µM (inactive)

SMILES: C[n+]1c(-c2ccc(/C=N\N3CCN(/N=C/c4ccc(-c5cn6ccsc6[n+]5C)cc4)CC3)cc2)cn2ccsc21
- GI50 (LOX IMVI): 60.8 µM (inactive)
- GI50 (SK-OV-3): 8.04 µM (inactive)
- GI50 (A498): 23.1 µM (inactive)
- GI50 (KM12): 25.8 µM (inactive)
- GI50 (SNB-19): 38.4 µM (inactive)
- GI50 (CAKI-1): 34 µM (inactive)
- GI50 (K562): 11.8 µM (inactive)
- GI50 (CCRF-CEM): 36.7 µM (inactive)
- GI50 (DU-145): 23.3 µM (inactive)
- GI50 (NCI-H460): 26.7 µM (inactive)
- GI50 (OVCAR-5): > 100 µM (inactive)
- GI50 (A549): 44.1 µM (inactive)
- GI50 (U-251): 30.3 µM (inactive)
- GI50 (SK-MEL-2): 31.8 µM (inactive)
- GI50 (UACC-62): 22.1 µM (inactive)
- GI50 (HT-29): 40.8 µM (inactive)
- GI50 (SF-295): 28.6 µM (inactive)
- GI50 (UACC-257): 19.5 µM (inactive)
- GI50 (NCI-H23): 30.1 µM (inactive)
- GI50 (COLO 205): 16.8 µM (inactive)
- GI50 (EKVX): 43.5 µM (inactive)
- GI50 (M14): 44.8 µM (inactive)
- GI50 (IGROV-1): 30.7 µM (inactive)
- GI50 (HCT-15): 34.5 µM
- GI50 (SK-MEL-5): 22.8 µM (inactive)
- GI50 (BT-549): 17.1 µM (inactive)
- GI50 (SW-620): 32.1 µM (inactive)
- GI50 (UO-31): 89.5 µM (inactive)
- GI50 (SR): 41.4 µM (inactive)
- GI50 (OVCAR-3): 59.8 µM (inactive)
- GI50 (MDA-N): 25.7 µM (inactive)
- GI50 (OVCAR-4): 28.4 µM (inactive)
- GI50 (NCI/ADR-RES): > 100 µM (inactive)
- GI50 (HOP-92): 42.3 µM (inactive)
- GI50 (SF-268): 34.4 µM (inactive)
- GI50 (TK-10): 35.7 µM (inactive)
- GI50 (MOLT-4): 85.3 µM (inactive)
- GI50 (NCI-H226): 45.8 µM (inactive)
- GI50 (RPMI-8226): 22.7 µM (inactive)
- GI50 (SF-539): 30.3 µM (inactive)
- GI50 (ACHN): 65.5 µM (inactive)
- GI50 (HCT-116): 33.3 µM (inactive)
- GI50 (786-0): 26.1 µM (inactive)
- GI50 (NCI-H522): 18.1 µM (inactive)
- GI50 (PC-3): > 100 µM (inactive)
- GI50 (MDA-MB-435): 26.7 µM (inactive)
- GI50 (SN12C): 35.2 µM (inactive)
- GI50 (Hs-578T): 19.2 µM (inactive)
- GI50 (OVCAR-8): 41.7 µM (inactive)
- GI50 (MDA-MB-231): 20.7 µM (inactive)
- GI50 (MCF7): 29.9 µM (inactive)
- GI50 (HL-60): 21.2 µM (inactive)
- GI50 (RXF 393): 27.3 µM (inactive)
- GI50 (SNB-75): 26.9 µM (inactive)
- GI50 (T47D): 12.7 µM (inactive)
